# In ChEMBL document CHEMBL1131313, “1-[omega-(4-arylpiperazin-1-yl)alkyl]-3-diphenylmethylene-2,5- pyrrolidinediones as 5-HT1A receptor ligands: study of the steric requirements of the terminal amide fragment on 5-HT1A affinity/selectivity” (Bioorg Med Chem Lett, 1998):
# Assays:
# [1] = target: D(2) dopamine receptor (Rattus norvegicus, UniProt P61169); test: In vitro binding affinity against Dopamine receptor D2 in rat striatum membrane using [3H]raclopride as radioligand; type: cell membranes
# Chain of D(2) dopamine receptor (P61169 whole entry): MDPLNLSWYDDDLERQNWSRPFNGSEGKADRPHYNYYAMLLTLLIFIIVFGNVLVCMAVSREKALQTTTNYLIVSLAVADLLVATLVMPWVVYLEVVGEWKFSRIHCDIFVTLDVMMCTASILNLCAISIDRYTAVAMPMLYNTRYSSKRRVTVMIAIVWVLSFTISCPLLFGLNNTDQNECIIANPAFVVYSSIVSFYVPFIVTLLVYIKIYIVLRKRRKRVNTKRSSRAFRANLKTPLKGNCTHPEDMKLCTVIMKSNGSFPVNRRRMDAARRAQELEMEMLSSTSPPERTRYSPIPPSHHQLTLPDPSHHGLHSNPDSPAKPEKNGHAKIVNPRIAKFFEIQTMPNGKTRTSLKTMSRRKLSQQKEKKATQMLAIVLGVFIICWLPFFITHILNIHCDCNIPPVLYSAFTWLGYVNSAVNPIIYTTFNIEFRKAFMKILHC
# [2] = target: T1, 5-hydroxytryptamine receptor 1A (Rattus norvegicus, UniProt P19327); test: In vitro binding affinity against serotonin 5-HT1A receptor in rat cerebral cortex membrane using [3H]8-OH-DPAT as radioligand; type: cell membranes
# T1 sequence (P19327 whole entry): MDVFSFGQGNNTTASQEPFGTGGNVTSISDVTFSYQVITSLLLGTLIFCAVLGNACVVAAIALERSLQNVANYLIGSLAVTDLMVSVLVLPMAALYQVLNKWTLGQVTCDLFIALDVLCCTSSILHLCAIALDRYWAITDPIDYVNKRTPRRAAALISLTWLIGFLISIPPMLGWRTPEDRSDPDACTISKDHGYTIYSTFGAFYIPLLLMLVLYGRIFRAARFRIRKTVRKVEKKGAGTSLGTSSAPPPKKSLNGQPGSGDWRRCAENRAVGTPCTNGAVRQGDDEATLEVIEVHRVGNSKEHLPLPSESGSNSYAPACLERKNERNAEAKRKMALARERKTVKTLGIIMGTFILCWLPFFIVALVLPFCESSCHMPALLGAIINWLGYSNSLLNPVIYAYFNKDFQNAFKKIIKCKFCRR
# [3] = target: T2, Adrenergic receptor alpha-1 (Rattus norvegicus, UniProt P15823+P23944+P43140); test: In vitro binding affinity against Alpha-1 adrenergic receptor in rat cerebral cortex membrane using [3H]prazosin as radioligand; type: cell membranes
# T2 sequence (P15823 whole entry): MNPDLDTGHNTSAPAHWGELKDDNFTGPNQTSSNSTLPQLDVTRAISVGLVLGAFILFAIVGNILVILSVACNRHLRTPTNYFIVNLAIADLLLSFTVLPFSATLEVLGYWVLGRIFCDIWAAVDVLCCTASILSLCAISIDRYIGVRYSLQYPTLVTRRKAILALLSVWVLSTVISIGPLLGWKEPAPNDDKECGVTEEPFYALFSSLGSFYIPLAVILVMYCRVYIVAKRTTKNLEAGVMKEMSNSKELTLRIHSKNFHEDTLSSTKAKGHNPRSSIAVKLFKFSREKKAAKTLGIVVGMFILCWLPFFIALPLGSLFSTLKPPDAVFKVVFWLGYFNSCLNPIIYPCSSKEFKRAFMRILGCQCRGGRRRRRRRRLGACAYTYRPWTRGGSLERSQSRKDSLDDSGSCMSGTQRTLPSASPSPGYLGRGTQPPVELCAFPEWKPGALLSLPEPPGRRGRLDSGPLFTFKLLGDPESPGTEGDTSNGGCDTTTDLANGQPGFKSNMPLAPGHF
# T2 sequence (P23944 whole entry): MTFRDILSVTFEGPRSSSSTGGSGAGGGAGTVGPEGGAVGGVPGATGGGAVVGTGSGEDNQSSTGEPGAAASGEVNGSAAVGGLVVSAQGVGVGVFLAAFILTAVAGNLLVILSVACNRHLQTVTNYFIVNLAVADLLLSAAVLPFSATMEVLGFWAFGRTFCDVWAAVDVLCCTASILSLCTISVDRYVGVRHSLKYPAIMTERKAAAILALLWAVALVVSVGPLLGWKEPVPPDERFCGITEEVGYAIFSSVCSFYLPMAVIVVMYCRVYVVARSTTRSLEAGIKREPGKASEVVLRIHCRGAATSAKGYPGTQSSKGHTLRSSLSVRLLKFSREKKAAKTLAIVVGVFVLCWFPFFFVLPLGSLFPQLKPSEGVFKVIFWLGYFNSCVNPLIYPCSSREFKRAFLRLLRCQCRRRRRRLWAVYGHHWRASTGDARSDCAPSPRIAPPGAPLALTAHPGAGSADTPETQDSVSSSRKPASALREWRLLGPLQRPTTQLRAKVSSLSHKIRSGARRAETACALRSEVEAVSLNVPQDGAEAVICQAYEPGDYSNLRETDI
# T2 sequence (P43140 whole entry): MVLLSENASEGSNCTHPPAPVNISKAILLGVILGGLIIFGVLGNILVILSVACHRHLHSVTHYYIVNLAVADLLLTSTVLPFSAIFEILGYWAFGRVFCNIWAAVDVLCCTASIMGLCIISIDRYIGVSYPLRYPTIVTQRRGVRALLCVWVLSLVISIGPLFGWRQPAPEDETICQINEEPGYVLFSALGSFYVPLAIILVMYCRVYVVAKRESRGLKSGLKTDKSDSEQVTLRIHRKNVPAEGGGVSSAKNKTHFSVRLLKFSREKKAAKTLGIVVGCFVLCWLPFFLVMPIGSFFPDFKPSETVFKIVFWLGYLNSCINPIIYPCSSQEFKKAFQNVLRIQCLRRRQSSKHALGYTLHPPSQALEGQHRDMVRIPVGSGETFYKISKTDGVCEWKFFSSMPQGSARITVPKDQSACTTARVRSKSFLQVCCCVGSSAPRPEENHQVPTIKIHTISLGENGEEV
# [4] = target: T2, Adrenergic receptor alpha-1; test: Antagonistic activity (pA2) at Alpha-1 adrenergic receptor in ring segments of rat thoracic aorta contracted by phenylephrine; type: functional, tissue-based
# [5] = species on record: Rattus norvegicus; test: Compound was evaluated for its ability to affect adenylyl cyclase activity in rat hippocampus slice preparation; agonist; type: functional; settings: filed as agonist
Ki [1] [nM],Ki [2] [nM],Ki [3] [nM],Activity [5],SMILES,pA2 [4]
167,286,71.5,–,COc1ccccc1N1CCN(CCN2C(=O)CC(=C(c3ccccc3)c3ccccc3)C2=O)CC1,–
156,665,8.1,–,COc1ccccc1N1CCN(CCCN2C(=O)CC(=C(c3ccccc3)c3ccccc3)C2=O)CC1,–
> 1000,13.4,14.4,–,COc1ccccc1N1CCN(CCCCN2C(=O)CC(=C(c3ccccc3)c3ccccc3)C2=O)CC1,–
> 1000,49.4,392,–,O=C1CC(=C(c2ccccc2)c2ccccc2)C(=O)N1CN1CCN(c2cccc(Cl)c2)CC1,–
> 1000,93.8,> 1000,–,COc1ccccc1N1CCN(CN2C(=O)CC(=C(c3ccccc3)c3ccccc3)C2=O)CC1,–
> 1000,125,6.4,–,O=C1CC(=C(c2ccccc2)c2ccccc2)C(=O)N1CCCCN1CCN(c2ccccc2)CC1,–
> 1000,> 1000,> 1000,–,O=C1CC(=C(c2ccccc2)c2ccccc2)C(=O)N1CCN1CCN(c2cccc(Cl)c2)CC1,–
> 1000,59.6,> 1000,Agonist,O=C1CC(=C(c2ccccc2)c2ccccc2)C(=O)N1CN1CCN(c2cccc(C(F)(F)F)c2)CC1,–
801,127,39.2,–,O=C1CC(=C(c2ccccc2)c2ccccc2)C(=O)N1CCCN1CCN(c2cccc(Cl)c2)CC1,–
> 1000,98,> 1000,–,O=C1CC(=C(c2ccccc2)c2ccccc2)C(=O)N1CN1CCN(c2ccccc2)CC1,–
367,39.3,16.4,–,O=C1CC(=C(c2ccccc2)c2ccccc2)C(=O)N1CCCCN1CCN(c2cccc(Cl)c2)CC1,–
689,15.8,60.5,–,O=C1CC(=C(c2ccccc2)c2ccccc2)C(=O)N1CCCCN1CCN(c2cccc(C(F)(F)F)c2)CC1,–
351,3.3,51.8,Agonist,O=C1CC(=C(c2ccccc2)c2ccccc2)C(=O)N1CCCCN1CCN(c2ccc(F)cc2)CC1,–

SMILES,Ki [1] [nM],Ki [2] [nM],Ki [3] [nM],Activity [5],pA2 [4]
O=C1CC(=C(c2ccccc2)c2ccccc2)C(=O)N1CCCN1CCN(c2cccc(C(F)(F)F)c2)CC1,> 1000,> 1000,62.7,–,–
O=C1CC(=C(c2ccccc2)c2ccccc2)C(=O)N1CCCN1CCN(c2ccccc2)CC1,> 1000,> 1000,5.7,–,7.79
O=C1CC(=C(c2ccccc2)c2ccccc2)C(=O)N1CCCN1CCN(c2ccc(F)cc2)CC1,> 1000,> 1000,8.3,–,8.63
O=C1CC(=C(c2ccccc2)c2ccccc2)C(=O)N1CCN1CCN(c2cccc(C(F)(F)F)c2)CC1,> 1000,> 1000,> 1000,–,–
O=C1CC(=C(c2ccccc2)c2ccccc2)C(=O)N1CN1CCN(c2ccc(F)cc2)CC1,> 1000,> 1000,746,–,–
O=C1CC(=C(c2ccccc2)c2ccccc2)C(=O)N1CCN1CCN(c2ccccc2)CC1,> 1000,> 1000,214,–,–
O=C1CC(=C(c2ccccc2)c2ccccc2)C(=O)N1CCN1CCN(c2ccc(F)cc2)CC1,> 1000,> 1000,529,–,–
